Test results published in US9561220B2, “Group of alkaloids, the novel autophagic enhancers for treatment of cancers and neurodegenerative conditions thereof” (Macau University of Science and Technology, priority 2014, dated 2017).
Where two headings read alike, the source gives them in different places.

Columns and labels:
[1] = system: EGFP-tagged mutant huntingtin (HDQ55, HDQ74); experiment: Removal of mutant huntingtin by immunoblotting against EGFP; type: cell-based; details: PC 12 cells, 5-10 μM, 24 h, immunoblotting against EGFP antibody (FIG. 8b)
Experimental: (§1) PC 12 cells were transfected transiently with EGFP-HDQ55/74 plasmids for 24 h using Lipofectamine Plus LTX reagent (Invitrogen) according to the manufacturer's protocol. The transfected cells were then treated with […], isoliensinine, dauricine, cepharanthine, hernandezine and thalidezine for 24 h. The removal of mutant huntingtin, ([…]74) was then quantitated by immunoblotting with antibody against EGFP or by immunocytochemistry under fluorescence microscopy.

[2] = system: mutant huntingtin aggregate (HDQ55); experiment: Mutant huntingtin aggregate by fluorescence imaging; type: cell-based; details: PC 12 cells, fluorescence imaging (FIG. 8c)
Experimental: as §1

[3] = system: Atg7 wild-type mouse embryonic fibroblasts; experiment: GFP-LC3 puncta in Atg7 wild-type MEFs; type: cell-based; details: 20 μM liensinine or 10 μM others, 24 h (FIGS. 4a to 4c)
Experimental: GFP-LC3 puncta formation was quantified as previously described. In brief, both Atg7 wild-type (Atg7-wt or Atg7+/+) and deficient (Atg7-/-) mouse embryonic fibroblasts (MEFs) were transfected with GFP-LC3 plasmid and then grown on coverslips in a 6-well plate. The cells were then treated with 20 μM of […], 10 μM of isoliensinine, 10 μM of dauricine, 10 μM of cepharanthine, hernandezine or 10 μM of thalidezine. for 24 h. The cells were then fixed in 4% paraformaldehyde for 20 minutes at room temperature and then rinsed with PBS. Slides were mounted with FluorSaveTM mounting media (Calbiochem, San Diego, Calif.) and examined by fluorescence microscopy. The number of GFP-positive cells with GFP-LC3 puncta formation was examined under the Nikon ECLIPSE 80i microscope. Representative images were captured with CCD digital camera Spot RT3TM (Diagnostic Instruments, Inc., Melville, N.Y.). To quantify for autophagy, the percentage of cells with punctate GFP-LC3 fluorescence was calculated by counting the number of the cells with punctate GFP-LC3 fluorescence in GFP-positive cells. A minimum of 150 cells from 3 randomly selected fields were scored.

[4] = system: HeLa cells expressing GFP-LC3; experiment: GFP-LC3 puncta quantification in the presence of autophagic inhibitor 3-MA; type: cell-based, human; details: 20 μM liensinine or 10 μM others, 3-MA 5 mM, 4 hours (FIG. 3)
Experimental: GFP-LC3 puncta formation was quantified as previously described. In brief, HeLa cells expressing GFP-LC3 were treated with 20 μM of […], or 10 μM of isoliensinine, dauricine, cepharanthine, hernandezine or thalidezine in the presence of autophagic inhibitor, 3-methyl adenine (3-MA, 5 mM), for 4 hours. The cells were then fixed in 4% paraformaldehyde for 20 minutes at room temperature and then rinsed with PBS. Slides were mounted with FluorSaveTM mounting media (Calbiochem) and examined by fluorescence microscopy. To quantify for autophagy, the percentage of cells with punctate GFP-LC3 fluorescence was calculated by counting the number of the cells with punctate GFP-LC3 fluorescence in GFP-positive cells. A minimum of 150 cells from 3 randomly selected fields were scored.

[5] = system: autophagy deficient cells (Atg7−/− or Atg7-ko) MEFs; experiment: Annexin V / propidium iodide flow cytometry in Atg7 wild-type and deficient MEFs; type: cell-based, mouse
Experimental: Cell viability was measured using an annexin V staining kit (BD Biosciences, San Jose, Calif., USA). Briefly, Atg7 wild-type (Atg7+/+ or Atg7-wt) and Atg7 deficient (Atg7−/− or Atg7-ko) mouse embryonic fibroblasts (MEFs) were treated with the selected alkaloids for 24 h. Cells were then harvested and analysed by multiparametric flow cytometry using FITC-Annexin V and Propidium iodide staining (BD Biosciences, San Jose, Calif., USA) according to the manufacturer's instructions. Flow cytometry was then carried out using a FACSCalibur flow cytometer (BD Biosciences, San Jose, Calif., USA). Data acquisition and analysis was performed with CellQuest (BD Biosciences, San Jose, Calif., USA). Data were obtained from three independent experiments.

[6] = MEFs, 24 h, annexin V/PI flow cytometry (FIGS. 6a to 6c)

Compound | clearance of overexpressed EGFP-tagged mutant huntingtin (HDQ55, HDQ74) [1] | formed mutant huntingtin aggregate (HDQ55) [2] | GFP-LC3 puncta formation in wild type Atg7 cells [3] | compound-induced GFP-LC3 puncta formation in the presence of autophagic inhibitor (3-MA) [4] | cytotoxic effect to autophagy deficient cells (Atg7−/−) versus Atg7 wild-type [5, 6] | cytotoxic effect to autophagy deficient cells (Atg7−/−) versus Atg7 wild-type [5]
COc1ccc2cc1Oc1ccc(cc1)C[C@H]1c3cc(c(OC)cc3CCN1C)Oc1c(OC)c(OC)c(OC)c3c1[C@H](C2)N(C)CC3 [hernandezine] | enhanced | significantly reduced | induce | significant reduction |  | 
COc1cc2c(cc1OC)[C@@H](Cc1ccc(Oc3cc(C[C@@H]4c5cc(OC)c(OC)cc5CCN4C)ccc3O)cc1)N(C)CC2 [dauricine] | enhanced | significantly reduced | induce | significant reduction | less cytotoxicity | 
COc1cc2c(cc1OC)[C@@H](Cc1ccc(O)c(Oc3cc4c(cc3OC)CCN(C)[C@@H]4Cc3ccc(O)cc3)c1)N(C)CC2 [liensinine] | enhanced | significantly reduced | induce | significant reduction | less cytotoxicity | 
thalidezine | enhanced | significantly reduced | induce | significant reduction |  | less cytotoxicity
COc1ccc(C[C@@H]2c3cc(Oc4cc(C[C@@H]5c6cc(O)c(OC)cc6CCN5C)ccc4O)c(OC)cc3CCN2C)cc1 [isoliensinine] | enhanced | significantly reduced | induce | significant reduction | less cytotoxicity | 
